Assay results: PubChem BioAssay (NCI)
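Cells were grown in 96-well plates and exposed to each compound for 48 hours at five concentrations; endpoints were interpolated linearly between bracketing concentrations, or set to the highest concentration if not reached. Abbreviation: GI50, concentration required for 50% inhibition of growth. The concentration for full growth arrest is given as TGI.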

Key:
Assay in all cases: NCI-60 cell line screen, 48 h
SR leukemia = test system: SR leukemia
TK-10 renal = test system: TK-10 renal
MDA-MB-435 = test system: MDA-MB-435
IGROV1 ovarian = test system: IGROV1 ovarian
CAKI-1 renal = test system: CAKI-1 renal
HCT-116 colon = test system: HCT-116 colon
OVCAR-3 ovarian = test system: OVCAR-3 ovarian
OVCAR-5 ovarian = test system: OVCAR-5 ovarian
HCT-15 colon = test system: HCT-15 colon
MCF7 breast = test system: MCF7 breast
BT-549 breast = test system: BT-549 breast
UO-31 renal = test system: UO-31 renal
MDA-MB-468 breast = test system: MDA-MB-468 breast
DU-145 prostate = test system: DU-145 prostate
ACHN renal = test system: ACHN renal
KM12 colon = test system: KM12 colon
A498 renal = test system: A498 renal
786-0 renal = test system: 786-0 renal
PC-3 prostate = test system: PC-3 prostate
RXF 393 renal = test system: RXF 393 renal
SF-295 CNS = test system: SF-295 CNS
K-562 leukemia = test system: K-562 leukemia
SF-268 CNS = test system: SF-268 CNS
SK-OV-3 ovarian = test system: SK-OV-3 ovarian
COLO 205 colon = test system: COLO 205 colon
MOLT-4 leukemia = test system: MOLT-4 leukemia
HL-60(TB) leukemia = test system: HL-60(TB) leukemia
HT29 colon = test system: HT29 colon
NCI-H226 lung = test system: NCI-H226 lung
HCC-2998 colon = test system: HCC-2998 colon
A549 NSCLC = test system: A549 NSCLC
SN12C renal = test system: SN12C renal
SNB-75 CNS = test system: SNB-75 CNS
SK-MEL-28 melanoma = test system: SK-MEL-28 melanoma
SW-620 colon = test system: SW-620 colon
NCI-H23 lung = test system: NCI-H23 lung
SK-MEL-2 melanoma = test system: SK-MEL-2 melanoma
OVCAR-4 ovarian = test system: OVCAR-4 ovarian
UACC-62 melanoma = test system: UACC-62 melanoma
HS 578T breast = test system: HS 578T breast
SNB-19 CNS = test system: SNB-19 CNS
EKVX NSCLC = test system: EKVX NSCLC
LOX IMVI melanoma = test system: LOX IMVI melanoma
SF-539 CNS = test system: SF-539 CNS
RPMI-8226 leukemia = test system: RPMI-8226 leukemia
MDA-MB-231 breast = test system: MDA-MB-231 breast
MALME-3M melanoma = test system: MALME-3M melanoma
SK-MEL-5 melanoma = test system: SK-MEL-5 melanoma
M14 melanoma = test system: M14 melanoma
T-47D breast = test system: T-47D breast
HOP-92 NSCLC = test system: HOP-92 NSCLC
HOP-62 NSCLC = test system: HOP-62 NSCLC
UACC-257 melanoma = test system: UACC-257 melanoma
NCI-H460 lung = test system: NCI-H460 lung

COc1ccc(OC)c(/C=C/C(=O)c2nc3ccccc3n2Cc2ccc(F)cc2)c1
GI50 (SR leukemia): 2200 nM
TGI (SR leukemia): 7.4 µM
GI50 (TK-10 renal): 3.26 µM
TGI (TK-10 renal): 17 µM
GI50 (MDA-MB-435): 2020 nM
TGI (MDA-MB-435): 4.94 µM
GI50 (IGROV1 ovarian): 3.01 µM
TGI (IGROV1 ovarian): 11.1 µM
GI50 (CAKI-1 renal): 3.08 µM
TGI (CAKI-1 renal): > 100 µM
GI50 (HCT-116 colon): 1610 nM
TGI (HCT-116 colon): 3.06 µM
GI50 (OVCAR-3 ovarian): 2170 nM
TGI (OVCAR-3 ovarian): 5.6 µM
GI50 (OVCAR-5 ovarian): 2450 nM
TGI (OVCAR-5 ovarian): 5.56 µM
GI50 (HCT-15 colon): 1620 nM
TGI (HCT-15 colon): 3.69 µM
GI50 (MCF7 breast): 2150 nM
TGI (MCF7 breast): > 100 µM
GI50 (BT-549 breast): 2610 nM
TGI (BT-549 breast): 7.6 µM
GI50 (UO-31 renal): 2370 nM
TGI (UO-31 renal): 8.61 µM
GI50 (MDA-MB-468 breast): 2110 nM
TGI (MDA-MB-468 breast): 5.8 µM
GI50 (DU-145 prostate): 3.53 µM
TGI (DU-145 prostate): > 100 µM
GI50 (ACHN renal): 2940 nM
TGI (ACHN renal): 9.13 µM
GI50 (KM12 colon): 2520 nM
TGI (KM12 colon): 7.14 µM
GI50 (A498 renal): 34.8 µM
TGI (A498 renal): > 100 µM
GI50 (786-0 renal): 2930 nM
TGI (786-0 renal): 9.51 µM
GI50 (PC-3 prostate): 3.82 µM
TGI (PC-3 prostate): > 100 µM
GI50 (RXF 393 renal): 1920 nM
TGI (RXF 393 renal): 4.41 µM
GI50 (SF-295 CNS): 3.05 µM
TGI (SF-295 CNS): 13.2 µM
GI50 (K-562 leukemia): 2520 nM
TGI (K-562 leukemia): > 100 µM
GI50 (SF-268 CNS): 3.5 µM
TGI (SF-268 CNS): > 100 µM
GI50 (SK-OV-3 ovarian): 11.4 µM
TGI (SK-OV-3 ovarian): > 100 µM
GI50 (COLO 205 colon): 2610 nM
TGI (COLO 205 colon): 8.08 µM
GI50 (MOLT-4 leukemia): 2150 nM
TGI (MOLT-4 leukemia): 7.98 µM
GI50 (HL-60(TB) leukemia): 1570 nM
TGI (HL-60(TB) leukemia): 5.93 µM
GI50 (HT29 colon): 2340 nM
TGI (HT29 colon): 5.43 µM
GI50 (NCI-H226 lung): 4.03 µM
TGI (NCI-H226 lung): 25.5 µM
GI50 (HCC-2998 colon): 1950 nM
TGI (HCC-2998 colon): 3.93 µM
GI50 (A549 NSCLC): 3.27 µM
TGI (A549 NSCLC): > 100 µM
GI50 (SN12C renal): 3.47 µM
TGI (SN12C renal): > 100 µM
GI50 (SNB-75 CNS): 1540 nM
TGI (SNB-75 CNS): 6.66 µM
GI50 (SK-MEL-28 melanoma): 2180 nM
TGI (SK-MEL-28 melanoma): 4.68 µM
GI50 (SW-620 colon): 2030 nM
TGI (SW-620 colon): 4.63 µM
GI50 (NCI-H23 lung): 2240 nM
TGI (NCI-H23 lung): 6.62 µM
GI50 (SK-MEL-2 melanoma): 1940 nM
TGI (SK-MEL-2 melanoma): 4.19 µM
GI50 (OVCAR-4 ovarian): 5.02 µM
TGI (OVCAR-4 ovarian): > 100 µM
GI50 (UACC-62 melanoma): 1930 nM
TGI (UACC-62 melanoma): 5.06 µM
GI50 (HS 578T breast): 3.12 µM
TGI (HS 578T breast): > 100 µM
GI50 (SNB-19 CNS): 2310 nM
TGI (SNB-19 CNS): 6.08 µM
GI50 (EKVX NSCLC): 2770 nM
TGI (EKVX NSCLC): > 100 µM
GI50 (LOX IMVI melanoma): 1560 nM
TGI (LOX IMVI melanoma): 3.06 µM
GI50 (SF-539 CNS): 2140 nM
TGI (SF-539 CNS): 4.67 µM
GI50 (RPMI-8226 leukemia): 2050 nM
TGI (RPMI-8226 leukemia): 5.89 µM
GI50 (MDA-MB-231 breast): 2000 nM
TGI (MDA-MB-231 breast): 4.43 µM
GI50 (MALME-3M melanoma): 3000 nM
TGI (MALME-3M melanoma): 14.3 µM
GI50 (SK-MEL-5 melanoma): 2730 nM
TGI (SK-MEL-5 melanoma): 10.1 µM
GI50 (M14 melanoma): 2670 nM
TGI (M14 melanoma): 9.56 µM
GI50 (T-47D breast): 2950 nM
TGI (T-47D breast): > 100 µM
GI50 (HOP-92 NSCLC): 2880 nM
TGI (HOP-92 NSCLC): 43.8 µM
GI50 (HOP-62 NSCLC): 3.08 µM
TGI (HOP-62 NSCLC): 11.2 µM
GI50 (UACC-257 melanoma): 4.03 µM
TGI (UACC-257 melanoma): 27.3 µM
GI50 (NCI-H460 lung): 1670 nM
TGI (NCI-H460 lung): 4 µM
